Square brackets hold non-standard residues; d marks the D form. Primed or numbered codes have the meaning given here. Ends that are not written are not given here. PEG27′ = polyethylene glycol 27 spacer; βAla = NCCC(=O)O
How the values were obtained:
[1] = tested on: choroidal neovascularization; assay: Mouse choroidal neovascularization model; type: in vivo; conditions: 2 μL/eye
Method: Microspheres (generated via sonication) were sanitized either by washing in 70% ethanol or by exposing to UV for 30 minutes prior to injection. Microspheres (F-VBP, F-Scramble, N-VBP, and N-Scramble) were suspended at 2 mg/mL in sterile PBS on the day of experiments. Soluble VBP or Scramble peptide (purchased from GenScript) were dissolved, sterile filtered through 0.2 μm filter, and diluted to 20 μg/mL in sterile PBS before experiments. SU4312 (Sigma) was dissolved in DMSO at 5 μg/mL, and Eylea (Regeneron Pharmaceuticals) was dissolved in PBS at 40 μg/mL and sterile filtered through 0.2 μm filter.
The mouse choroidal neovascularization model was generated as described in FIG. 8A. Briefly, C57BL/6J mice (Jackson Laboratories; 6-weeks old female) eyes were dilated using a drop of tropicamide (1%), and mice were anesthetized with ketamine and xylazine. Mice were subjected to photocoagulation (75 μm spot size, 0.1 s duration, 120 mW) at the 3-, 9-, and 12-o'clock positions of the posterior pole of the eye using an OcuLight GL diode laser (Iridex) with a glass coverslip over the eye. Microspheres were injected into each eye (2 μL/eye) using a pump microinjection apparatus (Harvard Apparatus) or Hamilton syringe. […] The area of ICAM-2+ staining (defined as mean CNV area) at each position (3-, 9-, and 12-o'clock) was quantified using Fiji and automated image thresholding. […]

iPSC-EC = iPSC-EC proliferation, xCELLigence cell index; type: cell-based; conditions: 5 ng/mL VEGF, 48-hour culture; for iPSC-EC proliferation (cell index): soluble peptide
Method: Soluble branched VBP containing a PEG-27 spacer (C{βA}K({βA}{PEG-27}KSAPYEWNFDI{Ld}{Yd}{Ad}{Fd}E)2 (SEQ ID NO:10) was synthesized as described above using fmoc solid-phase peptide synthesis, wherein each amino acid after the branch point was added at 8 molar excess relative to the resin free amines with a corresponding 8 molar excess of DIPEA and 4 molar excess of HBTU during the coupling reaction. Peptide purity was assessed using reverse-phase high performance liquid chromatograph, and peptide identity was assessed using matrix-assisted laser desorption time-of-flight spectrometry. Peptide content was assessed using Ellman's assay for free thiol, and both soluble branched VBP2, PEG-27 and VBP2,a were dissolved in PBS for use in cell culture assay. The influence of soluble branched peptides on iPSC-EC proliferation was established using ACEA xCELLigence RTCA-DP. iPSC-EC used in this Example were cultured in iCell-EC Growth Medium (as described in Example 1 above), were passaged using TrypLE, and were used between passage 4-8 for experiments. E-plates (containing gold electrodes on the bottom of each well) were first coated with Fibronectin (Corning) and were seeded with iPSC-EC at a density of 6000 cells/cm^2. Seeded E-plates were cultured on RTCA-DP overnight in Growth Medium, and on the day of experiments, medium was removed and replaced with medium containing 0.1 vol % supplement (CDI) in VascuLife (LifeLine) and L-glutamine (LifeLine) and containing 5 ng/mL VEGF (LifeLine) and the specified concentrations of either VBP2, PEG-27 or VBP2,a. iPSC-EC proliferation was assessed by monitoring the cell index (indicating cell coverage over the gold-coated wells) over a 48-hour period in culture, and at the end of the 48-hour culture, cell indices were averaged for two replicate wells per condition. Statistical analysis at the end of the experiment was performed using two-way analysis of variance (ANOVA) and Tukey's post-hoc test for α=0.05.

Cc1cc(C)c(/C=C2\C(=O)Nc3ccccc32)[nH]1 [SU5416]
mean CNV area, small-molecule inhibitor ([1]; 5 μg/mL in DMSO, vehicle control): inhibit angiogenesis in this model

(E{Fd}{Ad}{Yd}{Ld}IDFNWEYPASK)2KC (E[dF][dA][dY][dL]IDFNWEYPASKE[dF][dA][dY][dL]IDFNWEYPASKKC-NH2; also: branched dimer: two arms on K33) [VBP2,a]
iPSC-EC proliferation (cell index) at 5 μM (iPSC-EC; 5 μM soluble peptide): inhibited proliferation at a much greater extent than the VBP2, PEG27
iPSC-EC proliferation (cell index) (iPSC-EC): inhibited iPSC-EC proliferation in culture with VEGF

C{βA}K({βA}{PEG-27}KSAPYEWNFDI{Ld}{Yd}{Ad}{Fd}E)2 (C[βAla]K[βAla][PEG27′]KSAPYEWNFDI[dL][dY][dA][dF]E[βAla][PEG27′]KSAPYEWNFDI[dL][dY][dA][dF]E; not fully specified (C-terminus); numbers in words are those of the source; also: branched dimer: two arms on K3) [VBP2, PEG27]
iPSC-EC proliferation (cell index) (iPSC-EC): inhibited iPSC-EC proliferation in culture with VEGF

Eylea: commercial anti-angiogenesis compound (Regeneron Pharmaceuticals), soluble VEGF inhibitor protein
mean CNV area, Eylea ([1]; 40 μg/mL, control IgG): inhibit angiogenesis in this model

Source: patent US10183079B2, “Hydrogel microspheres containing peptide ligands for growth factor regulation in blood products” (Wisconsin Alumni Research Foundation, priority 2016, dated 2019)
